Data reported in publication PMC8667043, “First-in-Class Inhibitors of the Ribosomal Oxygenase MINA53” (Journal of Medicinal Chemistry, 2021).

How the values were obtained:
Format in all cases: biochemical
[1] = biological target: T1, MINA53 (Homo sapiens, UniProt Q8IUF8); experiment: MINA53 MS (RapidFire) hydroxylation inhibition assay, Rpl27a peptide; details: for IC50: MS based, enzyme 150 nM, means ± SD of at least three experiments, read-out: IC50 MINA53 (150 nM); for preferential inhibition of MINA53 over all other tested 2OG oxygenases: worst case of the panel of Table 1
T1 construct: MINA53 (Met1-Val464 and Ala26-Val464); histidine tag (TEV-cleavable) (cleaved yes); made in house; host or cells: E. coli BL21(DE3)-R3-pRARE2

[2] = biological target: T2, KDM6B (Homo sapiens, UniProt O15054); experiment: AlphaScreen KDM inhibition assay; details: read-out: IC50 KDM6B (0.1 nM), enzyme 0.1 nM, means ± SD
T2 construct: (D1141- N-terminal S1761) N-terminal (M1- N-terminal R1641); made in house; host or cells: E. coli

[3] = biological target: T3, p300 (Homo sapiens, UniProt Q09472); experiment: HotSpot KAT assay; details: 100 µM; means ± SD of three experiments; read-out: Residual Enzymatic Activity (%) p300
T3 construct: purchased Reaction Biology Corporation, Malvern, PA, USA
T3 sequence (Q09472 1284-1673): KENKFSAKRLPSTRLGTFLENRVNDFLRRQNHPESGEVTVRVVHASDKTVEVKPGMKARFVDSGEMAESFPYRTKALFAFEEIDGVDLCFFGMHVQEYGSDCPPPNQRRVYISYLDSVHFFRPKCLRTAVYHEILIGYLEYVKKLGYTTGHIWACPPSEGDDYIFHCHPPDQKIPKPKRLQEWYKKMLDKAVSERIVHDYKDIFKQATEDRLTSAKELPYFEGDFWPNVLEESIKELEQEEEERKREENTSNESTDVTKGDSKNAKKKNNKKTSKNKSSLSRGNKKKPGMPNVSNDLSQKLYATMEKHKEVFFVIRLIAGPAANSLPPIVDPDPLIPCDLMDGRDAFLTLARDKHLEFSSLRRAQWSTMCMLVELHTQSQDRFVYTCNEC
Protocol: (§1) The ef fects of 1-13 on th e histone lysine acetyltr a nsferas e activity (KAT ) o f p300 and PCAF were
(§2) determined using the HotSpot KAT assay ( Reaction Biology Corporation, Malvern, PA, USA)
(§3) according to the supplier’s procedure. In brief, recombinant form s of catal ytic domains of PCAF
(§4) NaCl, 0.1 mM EDTA, 1 mM DTT, 1 mM PMSF, 1% (v/v) DMSO) fo r 1 h at 30 °C in the presenc e
(§5) or absence of various concentrations of the inhibitors. Histone H3 acetyl ation was assessed by
(§6) liquid scintillation counting using a Tri-Carb 2800TR Liquid Scintillation Analyzer
(§7) (PerkinElmer). Assays at fixed con centration doses were performed in triplicate and analyzed
(§8) using Excel and GraphPad Prism 6.0 software (GraphPad Software Inc., San Diego, CA).

[4] = biological target: T4, PCAF (Homo sapiens, UniProt Q92831); experiment: HotSpot KAT assay; details: means ± SD of three experiments, read-out: Residual Enzymatic Activity (%) PCAF
T4 construct: purchased Reaction Biology Corporation, Malvern, PA, USA
Protocol: as §1, §2, §3, §4, §5, §6, §7, §8

[5] = biological target: T5, KDM4D (Homo sapiens, UniProt Q6B0I6); experiment: AlphaScreen KDM inhibition assay; details: read-out: IC50 KDM4D (2.0 nM), enzyme 2.0 nM, means ± SD
T5 construct: (M1-G373); His6 (N); made in house; host or cells: E. coli
T5 sequence (Q6B0I6 1-373): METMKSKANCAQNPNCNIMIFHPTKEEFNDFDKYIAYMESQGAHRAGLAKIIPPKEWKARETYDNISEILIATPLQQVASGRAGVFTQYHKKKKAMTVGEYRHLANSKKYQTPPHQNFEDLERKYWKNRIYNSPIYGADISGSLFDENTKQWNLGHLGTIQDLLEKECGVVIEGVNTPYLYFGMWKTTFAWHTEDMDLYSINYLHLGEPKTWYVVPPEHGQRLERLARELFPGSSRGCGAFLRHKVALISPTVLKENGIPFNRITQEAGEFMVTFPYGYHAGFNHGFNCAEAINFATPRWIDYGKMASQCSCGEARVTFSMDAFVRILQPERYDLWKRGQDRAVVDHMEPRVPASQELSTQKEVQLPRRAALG

[6] = biological target: T6, KDM3B (Homo sapiens, UniProt Q7LBC6); experiment: AlphaScreen KDM inhibition assay; details: read-out: IC50 KDM3B (0.4 nM), enzyme 0.4 nM, means ± SD
T6 construct: (L882- S1761); His6 (N); made in house; host or cells: insect cells
T6 sequence (Q7LBC6 882-1761): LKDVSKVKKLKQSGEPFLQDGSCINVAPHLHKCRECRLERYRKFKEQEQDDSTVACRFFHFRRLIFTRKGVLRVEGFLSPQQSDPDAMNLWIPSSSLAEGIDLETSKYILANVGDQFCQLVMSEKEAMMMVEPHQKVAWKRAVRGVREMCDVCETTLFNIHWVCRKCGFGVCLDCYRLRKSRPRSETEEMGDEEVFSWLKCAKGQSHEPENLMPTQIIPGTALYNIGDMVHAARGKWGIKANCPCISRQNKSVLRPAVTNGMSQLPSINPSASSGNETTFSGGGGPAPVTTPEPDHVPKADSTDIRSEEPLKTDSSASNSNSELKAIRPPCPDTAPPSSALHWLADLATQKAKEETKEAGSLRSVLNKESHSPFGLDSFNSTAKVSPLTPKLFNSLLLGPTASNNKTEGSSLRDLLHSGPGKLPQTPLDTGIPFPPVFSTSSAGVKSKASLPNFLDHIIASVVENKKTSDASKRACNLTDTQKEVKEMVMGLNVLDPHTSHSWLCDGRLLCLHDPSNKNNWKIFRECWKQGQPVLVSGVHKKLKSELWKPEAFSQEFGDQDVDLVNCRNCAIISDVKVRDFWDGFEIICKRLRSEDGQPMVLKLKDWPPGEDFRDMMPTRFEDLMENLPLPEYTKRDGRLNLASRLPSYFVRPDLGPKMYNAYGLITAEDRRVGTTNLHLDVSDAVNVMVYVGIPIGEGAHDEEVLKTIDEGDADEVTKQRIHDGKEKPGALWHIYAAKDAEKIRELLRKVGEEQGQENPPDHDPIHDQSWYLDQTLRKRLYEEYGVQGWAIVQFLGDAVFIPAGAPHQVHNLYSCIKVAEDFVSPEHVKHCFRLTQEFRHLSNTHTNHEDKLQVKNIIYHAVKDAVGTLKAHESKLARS

T1 sequence (Q8IUF8 1-464 isoform Q8IUF8-4): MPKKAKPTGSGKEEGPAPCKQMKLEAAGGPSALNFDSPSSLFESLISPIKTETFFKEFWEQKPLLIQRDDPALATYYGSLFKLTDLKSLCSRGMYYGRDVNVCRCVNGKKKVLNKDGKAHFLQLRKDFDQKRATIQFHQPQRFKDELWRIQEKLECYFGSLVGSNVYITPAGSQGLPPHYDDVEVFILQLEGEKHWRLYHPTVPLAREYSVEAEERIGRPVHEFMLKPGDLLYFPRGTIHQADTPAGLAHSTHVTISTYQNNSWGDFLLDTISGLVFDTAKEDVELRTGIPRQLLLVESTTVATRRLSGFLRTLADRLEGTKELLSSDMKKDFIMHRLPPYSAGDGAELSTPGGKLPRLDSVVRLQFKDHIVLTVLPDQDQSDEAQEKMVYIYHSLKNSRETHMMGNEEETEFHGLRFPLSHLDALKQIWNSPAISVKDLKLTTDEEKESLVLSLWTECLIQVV
T4 sequence (Q92831 492-658): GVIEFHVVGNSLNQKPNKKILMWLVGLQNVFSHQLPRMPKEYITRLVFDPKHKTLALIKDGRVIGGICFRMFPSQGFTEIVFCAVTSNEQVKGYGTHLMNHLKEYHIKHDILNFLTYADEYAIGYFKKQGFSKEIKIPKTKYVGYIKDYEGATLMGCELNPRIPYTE
T2 sequence (O15054 1141-1643 limits assumed): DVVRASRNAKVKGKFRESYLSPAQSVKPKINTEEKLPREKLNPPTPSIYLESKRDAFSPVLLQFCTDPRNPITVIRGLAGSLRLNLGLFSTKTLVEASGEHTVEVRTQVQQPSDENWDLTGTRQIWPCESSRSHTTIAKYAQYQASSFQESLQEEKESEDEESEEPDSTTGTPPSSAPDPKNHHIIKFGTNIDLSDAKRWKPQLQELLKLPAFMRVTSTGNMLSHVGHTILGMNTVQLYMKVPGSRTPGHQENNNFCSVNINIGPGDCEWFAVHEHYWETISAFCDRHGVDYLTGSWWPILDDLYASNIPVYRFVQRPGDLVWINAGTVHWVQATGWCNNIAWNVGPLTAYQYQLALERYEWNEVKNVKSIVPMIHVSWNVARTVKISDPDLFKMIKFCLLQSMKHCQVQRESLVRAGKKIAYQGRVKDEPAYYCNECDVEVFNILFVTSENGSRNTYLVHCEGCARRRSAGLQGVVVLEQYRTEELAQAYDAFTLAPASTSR

Row | Compound | IC50 [1] | IC50 [2] | remaining activity at 100 µM [3] | remaining activity at 100 µM [4] | IC50 [5] | IC50 [6] | preference for the inhibition of MINA53 over FIH and KDM4A ([1]; from IC50 values, different assay conditions) | preferential inhibition of MINA53 over all other tested 2OG oxygenases [1]
1 | O=C(O)c1c[nH]c(=S)[nH]c1=O [compound 1] | 208 ± 10 µM | > 100 µM | 98.7 ± 3% | 99.2 ± 2.7% | > 100 µM | 53.2 ± 3 µM | – | –
2 | CCCCSc1ncc(C(=O)O)c(=O)[nH]1 [compound 3, 2-(Butylthio)-3,4-dihydro-4-oxopyrimidine-5-carboxylic Acid] | 13.1 ± 0.8 µM | 43 ± 2 µM | 103 ± 2% | 101 ± 3.7% | 15.5 ± 0.8 µM | 62.1 ± 3 µM | – | –
3 | O=C(O)c1cnc(SCc2ccccc2)[nH]c1=O [compound 7, 2-(Benzylthio)-3,4-dihydro-4-oxopyrimidine-5-carboxylic Acid] | 3.8 ± 0.2 µM | 74.6 ± 2 µM | 107 ± 3.8% | 101 ± 2.9% | 34.7 ± 1.6 µM | > 100 µM | – | ≥ 5 fold
4 | O=C(O)c1cnc(SCCc2ccccc2)[nH]c1=O [compound 9, 2-(Phenethylthio)-3,4-dihydro-4-oxopyrimidine-5-carboxylic Acid] | 1.6 ± 0.2 µM | 47.4 ± 4 µM | 107 ± 4.8% | 102 ± 2.1% | 30.8 ± 2.2 µM | 54.2 ± 2 µM | – | –
5 | O=C(O)c1cnc(SCCCc2ccccc2)[nH]c1=O [compound 10, 2-((3-Phenylpropyl)thio)-3,4-dihydro-4-oxopyrimidine-5-carboxylic Acid] | 1.5 ± 0.1 µM | 70 ± 4 µM | 97.9 ± 2% | 101 ± 2.7% | 59.1 ± 3.9 µM | 57.5 ± 3.8 µM | – | ≥ 20 fold
6 | O=C(O)c1cnc(SCCCCc2ccccc2)[nH]c1=O [compound 11, 2-((4-Phenylbutyl)thio)-3,4-dihydro-4-oxopyrimidine-5-carboxylic Acid] | 2.4 ± 0.2 µM | 45.8 ± 3 µM | 98.6 ± 2.2% | 100 ± 3.7% | 26 ± 1.5 µM | 65.9 ± 4.5 µM | – | –
7 | CCOC(=O)/C=C\Sc1ncc(C(=O)O)c(=O)[nH]1 [compound 12, (Z)-2-((3-Ethoxy-3-oxoprop-1-en-1-yl)thio)-3,4-dihydro-4-oxopyrimidine-5-carboxylic Acid] | 5.4 ± 0.4 µM | 28.6 ± 1.6 µM | 104 ± 4.1% | 103 ± 2.3% | 22 ± 1.2 µM | 26.7 ± 2 µM | – | –

Further compounds by falling IC50 [1], results first:

Row | IC50 [1] | IC50 [2] | remaining activity at 100 µM [3] | remaining activity at 100 µM [4] | IC50 [5] | IC50 [6] | preference for the inhibition of MINA53 over FIH and KDM4A ([1]; from IC50 values, different assay conditions) | Compound | preferential inhibition of MINA53 over all other tested 2OG oxygenases [1]
8 | 65.4 ± 5 µM | 67.1 ± 3 µM | 106 ± 3.5% | 104 ± 3.7% | 19.8 ± 0.9 µM | 66.8 ± 4 µM | – | CCCCCCCCCSc1ncc(C(=O)O)c(=O)[nH]1 [compound 5, 2-(Nonylthio)-3,4-dihydro-4-oxopyrimidine-5-carboxylic Acid] | –
9 | 6.8 ± 0.5 µM | 75.3 ± 7 µM | 107 ± 4.2% | 104 ± 4.1% | 123 ± 8 µM | 63.7 ± 4 µM | – | O=C(O)/C=C\Sc1ncc(C(=O)O)c(=O)[nH]1 [compound 13, (Z)-2-((2-carboxyvinyl)thio)-3,4-dihydro-4-oxopyrimidine-5-carboxylic Acid] | –
10 | 5 ± 0.6 µM | 38.1 ± 3 µM | 104 ± 4.1% | 99.2 ± 2.1% | 30.3 ± 3 µM | 47.6 ± 4 µM | – | O=C(O)c1cnc(SCC2CCCCC2)[nH]c1=O [compound 6, 2-((Cyclohexylmethyl)thio)-3,4-dihydro-4-oxopyrimidine-5-carboxylic Acid] | –
11 | 4.3 ± 0.4 µM | 59.7 ± 4 µM | 97.7 ± 3% | 100 ± 2.9% | 27.5 ± 2 µM | 51.2 ± 3 µM | – | CCCCCSc1ncc(C(=O)O)c(=O)[nH]1 [compound 4, 2-(Pentylthio)-3,4-dihydro-4-oxopyrimidine-5-carboxylic Acid] | –
12 | 3 ± 0.5 µM | 71.6 ± 3 µM | 97.8 ± 3% | 100 ± 2.5% | 31.9 ± 1 µM | 106 ± 6 µM | ~5 fold | CSc1ncc(C(=O)O)c(=O)[nH]1 [compound 2, 2-(Methylthio)-3,4-dihydro-4-oxopyrimidine-5-carboxylic Acid] | –
13 | 3 ± 0.2 µM | 46.4 ± 3 µM | 106 ± 3.5% | 103 ± 3.7% | 26.7 ± 1.9 µM | 56.2 ± 4 µM | – | O=C(CSc1ncc(C(=O)O)c(=O)[nH]1)c1ccccc1 [compound 8, 2-((2-Oxo-2-phenylethyl)thio)-3,4-dihydro-4-oxopyrimidine-5-carboxylic Acid] | –
